One experiment addresses T1, CDK9/Cyclin T1 (Homo sapiens, UniProt P50750).
T1 construct: made in house; host or cells: HEK293 cells, recombinant adenovirus
The experiment can be described thus: Kinase assay using CDK9/Cyclin T1. It counts as biochemical. The following applies: read-out: CDK9 (activity range). An excerpt:
Cloning of CDK9 and Cyclin T1:
Both cDNA fragments were cloned by PCR into pDONR201 vectors using the gateway recombination system (Invitrogen) according to the manufacturer's recommendations. The fragments were subcloned into a gateway-adapted shuttle vector (pPM7) for production of recombinant adenovirus. All plasmids were verified by restriction digests and sequencing analysis.
Expression and Purification of CDK9/Cyclin T1 Proteins:
Expression and purification was in principle performed as described by Cotten et al. (M. Cotten et al., Nucleic acids research, 2003, 31(28), 128).
Kinase Assay Using CDK9/Cyclin T1:
Kinase assays were performed in principle as described by Cotten et al. (M. Cotten et al., Nucleic acids research, 2003, 31(28), 128).

A further experiment addresses T2, CDK2/CyclinA (Homo sapiens, UniProt P24941).
T2 construct: purchased Proqinase
The experiment can be described thus: Kinase assay determining CDK2/CyclinA activity. It counts as biochemical. The note with it: read-out: CDK2 (activity range). The protocol: Kinase Assays Determining CDK2/CyclinA and CDK5/p35 Activity:
Kinase assays were performed as described by the manufacturers recommendations (Proqinase for CDK2/CyclinA and Upsate for CDK5/p35).

T1 sequence (P50750 whole entry): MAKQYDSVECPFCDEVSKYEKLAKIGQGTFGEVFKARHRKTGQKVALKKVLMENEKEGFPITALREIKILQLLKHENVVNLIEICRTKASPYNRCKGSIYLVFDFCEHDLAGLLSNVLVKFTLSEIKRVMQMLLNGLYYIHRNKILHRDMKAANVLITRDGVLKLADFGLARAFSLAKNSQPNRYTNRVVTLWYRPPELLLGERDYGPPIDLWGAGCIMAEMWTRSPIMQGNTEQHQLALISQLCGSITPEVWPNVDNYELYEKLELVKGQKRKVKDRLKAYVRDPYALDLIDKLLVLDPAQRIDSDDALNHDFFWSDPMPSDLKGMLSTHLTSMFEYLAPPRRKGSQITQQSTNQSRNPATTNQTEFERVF
T1 sequence (O60563 whole entry partner): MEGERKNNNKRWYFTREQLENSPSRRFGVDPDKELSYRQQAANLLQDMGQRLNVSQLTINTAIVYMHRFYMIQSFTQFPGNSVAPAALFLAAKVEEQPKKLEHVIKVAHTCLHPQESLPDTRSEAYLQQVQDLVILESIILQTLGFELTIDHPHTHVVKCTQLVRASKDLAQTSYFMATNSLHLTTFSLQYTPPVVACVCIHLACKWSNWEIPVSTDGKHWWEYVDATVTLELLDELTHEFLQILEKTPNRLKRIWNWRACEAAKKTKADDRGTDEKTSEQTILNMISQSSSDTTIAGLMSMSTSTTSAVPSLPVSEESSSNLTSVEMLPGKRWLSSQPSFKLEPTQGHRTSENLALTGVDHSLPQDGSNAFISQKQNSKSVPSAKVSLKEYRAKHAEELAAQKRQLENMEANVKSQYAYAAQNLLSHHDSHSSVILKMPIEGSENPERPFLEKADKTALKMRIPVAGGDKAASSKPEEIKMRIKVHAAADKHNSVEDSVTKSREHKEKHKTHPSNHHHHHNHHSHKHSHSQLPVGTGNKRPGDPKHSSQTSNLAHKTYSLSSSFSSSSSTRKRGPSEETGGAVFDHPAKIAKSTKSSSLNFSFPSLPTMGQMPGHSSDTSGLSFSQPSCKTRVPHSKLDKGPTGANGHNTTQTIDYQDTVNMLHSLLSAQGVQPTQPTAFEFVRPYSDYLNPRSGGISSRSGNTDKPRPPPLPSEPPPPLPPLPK

Consider `COc1ccccc1-c1cc(Nc2ccc(NC(=O)c3ccncc3)cc2)ncn1` [(50)], for which the results for the IC50 on CDK9/Cyclin T1 and at CDK2/CyclinA were 1 to 10 µM and 10 to 250 µM, respectively.
As to `CC(C)(C)C(=O)Nc1ccc(Nc2cc(NCCN)ncn2)cc1` [(79)], the IC50 on CDK9/Cyclin T1 and on CDK2/CyclinA was 10 to 250 µM each time.
Take `Nc1cccc(-c2cc(NCCc3ccncc3)ncn2)c1` [(13)]: the IC50 on CDK9/Cyclin T1 and on CDK2/CyclinA was 1 to 10 µM each time.
Regarding `COc1cccc(-c2cc(Nc3ccc(C)c(NS(C)(=O)=O)c3)ncn2)c1` [(100)], the IC50 at CDK9/Cyclin T1 and at CDK2/CyclinA was 1 to 10 µM throughout.
For `COc1ncccc1-c1cc(Nc2ccc(C)c(NS(C)(=O)=O)c2)ncn1` [(176)], the values for the IC50 on CDK9/Cyclin T1 and at CDK2/CyclinA were 0.001 to 1 µM and 1 to 10 µM, respectively.
As for `CS(=O)(=O)Nc1cccc(Nc2cc(-c3cccc(N)c3)ncn2)c1` [(121)], the IC50 fell in the range of 0.001 to 1 µM at CDK9/Cyclin T1 and 1 to 10 µM at CDK2/CyclinA.
Taken in the same sequence, the figures for `Cc1ccc(Nc2cc(-c3cccc(CO)c3)ncn2)cc1NS(C)(=O)=O` [(183)] were 1 to 10 µM and 1 to 10 µM.
For `Nc1ccc(C(=O)Nc2ccc(Nc3cc(-c4cccs4)ncn3)cc2)cc1` [(77)], the IC50 on CDK9/Cyclin T1 was 1 to 10 µM; on CDK2/CyclinA, 10 to 250 µM.
Consider `COc1cccc(-c2cc(Nc3ccc(NS(=O)(=O)c4ccc(C)cc4)cc3)ncn2)c1` [(2)], for which the IC50 on CDK9/Cyclin T1 and on CDK2/CyclinA was 10 to 250 µM each time.
As for `CN1CCC(Nc2cc(Nc3ccc(NC(=O)C(C)(C)C)cc3)ncn2)CC1` [(74)], the IC50 on CDK9/Cyclin T1 and on CDK2/CyclinA was 10 to 250 µM in each case.
For `CC(C)(C)C(=O)Nc1ccc(Nc2cc(-c3ccccc3OCc3ccccc3)ncn2)cc1` [(85)], the values for the IC50 on CDK9/Cyclin T1 and on CDK2/CyclinA were 0.001 to 1 µM and 1 to 10 µM, respectively.
For `CCc1ccccc1-c1cc(Nc2ccc(NC(=O)C(C)(C)C)cc2)ncn1` [(131)], the IC50 at CDK9/Cyclin T1 was 10 to 250 µM; at CDK2/CyclinA, 1 to 10 µM.
Regarding `Cc1ccc(Nc2cc(-c3ccccc3OCc3ccccc3)ncn2)cc1NS(C)(=O)=O` [(156)], the IC50 at CDK9/Cyclin T1 and on CDK2/CyclinA was 0.001 to 1 µM each time.
For the compound `COc1ccccc1-c1cc(Nc2ccc(NC(=O)C(c3ccccc3)C(C)C)cc2)ncn1` (stereo not drawn) [(37)], the results for the IC50 at CDK9/Cyclin T1 and at CDK2/CyclinA were 1 to 10 µM and 10 to 250 µM, respectively.
The like results for `COc1ccccc1-c1cc(Nc2ccc(NS(=O)(=O)c3ccccc3)cc2)ncn1` [(155)] were, in that order, 0.001 to 1 µM and 0.001 to 1 µM.
With `COc1ccccc1-c1cc(Nc2ccc(NC(=O)c3ccc(N4CCN(C)CC4)cc3)cc2)ncn1` [(49)], the IC50 lay within 0.001 to 1 µM at CDK9/Cyclin T1 and 1 to 10 µM at CDK2/CyclinA.
With `Cc1ccc(Nc2cc(-c3cccc(N)c3)ncn2)cc1NS(=O)(=O)c1cccc2cccnc12` [(142)], the IC50 on CDK9/Cyclin T1 was in the range of 0.001 to 1 µM; at CDK2/CyclinA, 10 to 250 µM.
The like results for `O=C(Nc1ccc(Nc2cc(-c3ccc(Oc4ccccc4)cc3)ncn2)cc1)[C@@H]1CCCCN1` [(174)] were, in that order, 0.001 to 1 µM and 1 to 10 µM.
Taken in the same sequence, the figures for `Nc1ccc(C(=O)Nc2ccc(Nc3cc(-c4ccccc4)ncn3)cc2)cc1` [(76)] were 1 to 10 µM and 10 to 250 µM.
In the case of `C=Cc1ccccc1-c1cc(Nc2ccc(NC(=O)C(C)(C)C)cc2)ncn1` [(126)], the IC50 on CDK9/Cyclin T1 is 1 to 10 µM; on CDK2/CyclinA it was 10 to 250 µM.
Taken in the same sequence, the figures for `COC(=O)/C=C/c1cccc(-c2cc(Nc3ccc(C)c(NS(C)(=O)=O)c3)ncn2)c1` [(182)] were 1 to 10 µM and 1 to 10 µM.
Taken in the same sequence, the figures for `Cc1ccc(S(=O)(=O)Nc2ccc(Nc3cc(-c4ccc(CCC(=O)O)cc4)ncn3)cc2)cc1` [(17)] were 10 to 250 µM and 10 to 250 µM.
As to `COC(=O)CN(c1ccc(Nc2cc(-c3ccccc3OC)ncn2)cc1)S(=O)(=O)c1ccc(C)cc1` [(28)], the IC50 at CDK9/Cyclin T1 and at CDK2/CyclinA was 1 to 10 µM in each case.
In the case of `COc1ccccc1-c1cc(Nc2ccc(NC(=N)N)cc2)ncn1` [(53)], the IC50 on CDK9/Cyclin T1 and on CDK2/CyclinA was 1 to 10 µM in each case.
Consider `COc1ccc(-c2cc(Nc3cccc(S(N)(=O)=O)c3)ncn2)cc1` [Compound 215], for which the IC50 on CDK9/Cyclin T1 and on CDK2/CyclinA was 0.001 to 1 µM in each case.
Consider `COc1ccccc1-c1cc(Nc2ccc(NS(=O)(=O)c3ccc(C(C)C)cc3)cc2)ncn1` [(23)], for which the IC50 on CDK9/Cyclin T1 fell in the range of 0.001 to 1 µM; at CDK2/CyclinA it was 1 to 10 µM.
Take `COc1ccccc1-c1cc(Nc2ccc(NC(=O)C(C)(C)C)cc2C)ncn1` [(119)]: the IC50 at CDK9/Cyclin T1 and on CDK2/CyclinA was 10 to 250 µM in each case.
For `COc1ccccc1-c1cc(Nc2ccc(NC(=O)[C@@H]3CCN3)cc2)ncn1` [(90)], the IC50 was 0.001 to 1 µM at CDK9/Cyclin T1 and 1 to 10 µM on CDK2/CyclinA.
With `Nc1ccc(C(=O)Nc2ccc(Nc3cc(/C=C/c4ccccc4)ncn3)cc2)cc1` [(32)], the IC50 at CDK9/Cyclin T1 and on CDK2/CyclinA was 10 to 250 µM throughout.
Consider `COc1ccc(-c2cc(Nc3ccc(NC(=O)c4ccc(N)cc4)cc3)ncn2)c(OC)c1` [(31)], for which the IC50 at CDK9/Cyclin T1 and on CDK2/CyclinA was 0.001 to 1 µM in each case.
In the case of `Cc1ccc(Nc2cc(-c3cccc(NS(C)(=O)=O)c3)ncn2)cc1NS(C)(=O)=O` [(108)], the IC50 on CDK9/Cyclin T1 is 1 to 10 µM; on CDK2/CyclinA it was 0.001 to 1 µM.
For the compound `Nc1ccc(C(=O)Nc2ccc(Nc3cc(NCCO)ncn3)cc2)cc1` [(60)], the results for the IC50 at CDK9/Cyclin T1 and on CDK2/CyclinA were 1 to 10 µM and 10 to 250 µM, respectively.
Turning to `COc1ccccc1-c1cc(Nc2ccc(NC(=O)c3ccc(C(C)(C)C)cc3)cc2)ncn1` [(45)], the IC50 is 1 to 10 µM on CDK9/Cyclin T1 and 10 to 250 µM at CDK2/CyclinA.
Take `COc1ccc(-c2cc(NCCc3ccncc3)ncn2)cc1` [(92)]: the IC50 on CDK9/Cyclin T1 and on CDK2/CyclinA was 10 to 250 µM throughout.
Consider `CS(=O)(=O)Nc1cccc(-c2cc(Nc3ccc(C(=O)N[C@@H]4CCCC[C@H]4N)cc3)ncn2)c1` (racemic) [(195)], for which the IC50 on CDK9/Cyclin T1 is 0.001 to 1 µM; at CDK2/CyclinA it was 1 to 10 µM.
In the case of `COc1ccccc1-c1cc(Nc2ccc(NC(=O)C(C)(C)C)cc2)ncn1` [(19)], the IC50 was 0.001 to 1 µM at CDK9/Cyclin T1 and 1 to 10 µM at CDK2/CyclinA.
Regarding `COc1ccccc1-c1cc(Nc2ccc(NC(=O)CC3CCCCN3C(=O)OC(C)(C)C)cc2)ncn1` (stereo not drawn) [(48)], the IC50 at CDK9/Cyclin T1 and at CDK2/CyclinA was 1 to 10 µM each time.
Turning to `Nc1ccc(C(=O)Nc2ccc(Nc3cc(Cl)ncn3)cc2)cc1` [(25)], the IC50 on CDK9/Cyclin T1 and at CDK2/CyclinA was 10 to 250 µM throughout.
Consider `COc1ccc(-c2cc(Nc3ccc(NS(=O)(=O)c4ccc(C)cc4)cc3)ncn2)cc1` [(1)], for which the IC50 on CDK9/Cyclin T1 lay within 10 to 250 µM; at CDK2/CyclinA, 1 to 10 µM.
Regarding `COc1ccc(-c2cc(Nc3ccc(C)c(NS(C)(=O)=O)c3)ncn2)cc1` [(3)], the IC50 was in the range of 1 to 10 µM on CDK9/Cyclin T1 and 0.001 to 1 µM on CDK2/CyclinA.
As for `COc1ccccc1-c1cc(Nc2ccc(-c3nc4ccccc4[nH]3)cc2)ncn1` [(63)], the IC50 at CDK9/Cyclin T1 and at CDK2/CyclinA was 0.001 to 1 µM in each case.
As for `COc1ccccc1-c1cc(Nc2ccc(C(=O)Nc3ccc(C(C)C)cc3)cc2)ncn1` [(137)], the IC50 on CDK9/Cyclin T1 was 1 to 10 µM; at CDK2/CyclinA, 10 to 250 µM.
With `Cc1ccc(Nc2cc(-c3cccc(C=O)c3)ncn2)cc1NS(C)(=O)=O` [(165)], the IC50 at CDK9/Cyclin T1 and on CDK2/CyclinA was 1 to 10 µM each time.
Regarding `c1ccc(COc2ccccc2-c2cc(NCCc3ccncc3)ncn2)cc1` [(7)], the IC50 at CDK9/Cyclin T1 lay within 0.001 to 1 µM; at CDK2/CyclinA, 1 to 10 µM.
For the compound `COc1ccccc1-c1cc(Nc2ccc(NC(=O)c3ccc4[nH]cnc4c3)cc2)ncn1` [(138)], the IC50 on CDK9/Cyclin T1 fell in the range of 1 to 10 µM; on CDK2/CyclinA, 10 to 250 µM.
